Our source for the EC50 and IC50 values is ChEMBL document CHEMBL1201862, “PubChem BioAssay data set” (2004).

One assay has as its target Troponin, cardiac muscle (Homo sapiens, UniProt P19429+P45379+P63316). The assay can be described thus: Fluorescence-based biochemical high throughput dose response assay for activators of the calcium sensitivity of cardiac Regulated Thin Filaments (RTF). [Related pubchem assays (depositor defined):AID493008, AID493018, AID504382, AID504383]. It counts as protein-complex assay.

Assay [1] has as its target T1, Tyrosine-protein phosphatase non-receptor type 7 (Homo sapiens, UniProt P35236).
T1 sequence (P35236 whole entry): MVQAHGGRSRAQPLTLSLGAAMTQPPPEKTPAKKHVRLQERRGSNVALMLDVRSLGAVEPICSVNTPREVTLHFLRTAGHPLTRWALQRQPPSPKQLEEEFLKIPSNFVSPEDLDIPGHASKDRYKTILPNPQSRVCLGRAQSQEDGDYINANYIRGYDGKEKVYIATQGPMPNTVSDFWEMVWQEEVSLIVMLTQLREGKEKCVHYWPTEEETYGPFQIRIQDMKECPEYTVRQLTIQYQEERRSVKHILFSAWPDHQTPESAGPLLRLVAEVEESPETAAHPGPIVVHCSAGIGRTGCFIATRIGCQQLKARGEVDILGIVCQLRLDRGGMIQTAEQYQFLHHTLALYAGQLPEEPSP
The assay can be described thus: redox-dependent HePTP inhibition, mechanism study, biochemical, fluorescence (AID 2068). Format: functional.

Assay [2] deals with T2, Delta-type opioid receptor (Homo sapiens, UniProt P41143). The assay can be described thus: DOR antagonists, SAR follow-up, image-based (AID 2357). It counts as functional.
T2 sequence (P41143 whole entry): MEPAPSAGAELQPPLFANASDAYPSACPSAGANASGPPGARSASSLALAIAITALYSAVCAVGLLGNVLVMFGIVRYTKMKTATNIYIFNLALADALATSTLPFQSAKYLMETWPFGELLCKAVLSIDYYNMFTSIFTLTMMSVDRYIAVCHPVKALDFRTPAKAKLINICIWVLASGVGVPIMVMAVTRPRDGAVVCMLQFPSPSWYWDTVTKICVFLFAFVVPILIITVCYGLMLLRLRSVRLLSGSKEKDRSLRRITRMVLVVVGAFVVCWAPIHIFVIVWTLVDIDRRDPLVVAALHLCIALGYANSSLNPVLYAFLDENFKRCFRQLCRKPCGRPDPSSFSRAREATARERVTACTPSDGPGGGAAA
Assay [3] addresses T3, Kappa-type opioid receptor (Homo sapiens, UniProt P41145). Briefly: kappa opioid receptor blockers, cell-based, luminescence, beta-arrestin, SAR follow-up (AID 2285). It counts as functional.
Assay [4] concerns the target Dual specificity protein phosphatase 3 (Homo sapiens, UniProt P51452). The assay can be described thus: SAR VHR1 Fluorescent Assay for In Vitro dose response studies Set 2. [Related pubchem assays (depositor defined):AID1654, AID1661, AID1878]. It counts as functional.
The target of assay [5] is T3, Kappa-type opioid receptor. The assay can be described thus: KOR agonist analogs, imaging readout, SAR follow-up, image-based (AID 2359). It counts as functional.
Assay [6] deals with T4, Mu-type opioid receptor (Homo sapiens, UniProt P35372). Briefly: MOR antagonists, SAR follow-up, image-based (AID 2420).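 Also: compounds added before stimulation of receptor with agonist DAMGO.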 Format: functional.
T4 sequence (P35372 whole entry): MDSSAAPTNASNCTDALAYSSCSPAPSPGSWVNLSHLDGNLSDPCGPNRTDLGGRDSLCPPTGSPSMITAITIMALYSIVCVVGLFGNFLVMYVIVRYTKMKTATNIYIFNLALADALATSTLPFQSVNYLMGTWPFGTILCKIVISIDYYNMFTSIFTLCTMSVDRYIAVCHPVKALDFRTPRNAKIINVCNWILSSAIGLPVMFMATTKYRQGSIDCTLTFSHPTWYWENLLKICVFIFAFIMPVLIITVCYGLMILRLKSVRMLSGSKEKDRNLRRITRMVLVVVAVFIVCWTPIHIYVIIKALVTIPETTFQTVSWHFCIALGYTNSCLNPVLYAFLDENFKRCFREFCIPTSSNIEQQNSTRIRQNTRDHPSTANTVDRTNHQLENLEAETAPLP
The target of assay [7] is T4, Mu-type opioid receptor. The assay can be described thus: MOR agonists by imaging, SAR follow-up, image-based (AID 2352). Format: functional.
Assay [8] concerns the target T2, Delta-type opioid receptor. The assay can be described thus: DOR agonists, SAR follow-up, image-based (AID 2370). Format: functional.
Assay [9] has as its target T1, Tyrosine-protein phosphatase non-receptor type 7. The assay can be described thus: SAR analysis of chemical inhibitors of HePTP using a Fluorescent assay - Set 2. [Related pubchem assays (depositor defined):AID1059, AID1077, AID1661, AID2085, AID521]. It counts as functional.
Assay [10] deals with T3, Kappa-type opioid receptor. Briefly: KOR antagonists by imaging, SAR follow-up, image-based (AID 2348). Format: functional.
The target in assay [11] is T3, Kappa-type opioid receptor. Briefly: SAR analysis of small molecule agonists of the kappa opioid receptor via a luminescent beta-arrestin assay - Set 2. [Related pubchem assays (depositor defined):AID1777, AID1785, AID1786, AID1966, AID2133, AID2136, AID2284, AID449737]. Format: functional.
Assay [12] concerns the target T3, Kappa-type opioid receptor. The assay can be described thus: SAR analysis of small molecule agonists of the kappa opioid receptor via a luminescent beta-arrestin assay - Set 3. [Related pubchem assays (depositor defined):AID1777, AID1785, AID1786, AID1966, AID2133, AID2136, AID2284, AID2500]. It counts as functional.
Assay [13] deals with T2, Delta-type opioid receptor. The assay can be described thus: SAR Analysis of Antagonists of the DOR Receptor using an Image-Based Assay - Set 2. [Related pubchem assays (depositor defined):AID1777, AID1785, AID1786, AID1966, AID2133, AID2136, AID2284, AID2285, AID2357]. Format: functional.
Assay [14] has as its target T3, Kappa-type opioid receptor. Briefly: KOR agonist analogs, arrestin-GFP redistribution, SAR follow-up, imaging, image-based, set 3 (AID 488833). It counts as functional.
Assay [15] deals with T3, Kappa-type opioid receptor. The assay can be described thus: SAR analysis of Antagonists of the Kappa Opioid Receptor (KOR) using an Image-Based Assay - Set 2. [Related pubchem assays (depositor defined):AID1777, AID1785, AID1786, AID1966, AID2133, AID2136, AID2284, AID2285, AID2348]. It counts as functional.
Assay [16] concerns the target T4, Mu-type opioid receptor. Briefly: SAR Analysis of Agonists of the MOR Receptor using an Image-Based Assay - Set 3. [Related pubchem assays (depositor defined):AID1777, AID1785, AID1786, AID1966, AID2133, AID2136, AID2284, AID2285, AID2352]. It counts as functional.
The target of assay [17] is T2, Delta-type opioid receptor. The assay can be described thus: SAR Analysis of Agonists of the DOR Receptor using an Image-Based Assay - Set 2. [Related pubchem assays (depositor defined):AID1777, AID1785, AID1786, AID1966, AID2133, AID2136, AID2284, AID2285, AID2370]. It counts as functional.
The target in assay [18] is T4, Mu-type opioid receptor. The assay can be described thus: SAR Analysis of Antagonists of the MOR Receptor using an Image-Based Assay - Set 2. [Related pubchem assays (depositor defined):AID1777, AID1785, AID1786, AID1966, AID2133, AID2136, AID2284, AID2285, AID2420]. It counts as functional.
In assay [19] the target is T2, Delta-type opioid receptor. The assay can be described thus: SAR Analysis of Agonists of the DOR Receptor using an Image-Based Assay - Set 3. [Related pubchem assays (depositor defined):AID1777, AID1786]. It counts as functional.
The target of assay [20] is T3, Kappa-type opioid receptor. The assay can be described thus: SAR analysis of Agonists of the Kappa Opioid Receptor (KOR) using an Image-Based Assay - Set 2. [Related pubchem assays (depositor defined):AID1777, AID1786, AID1966, AID2133, AID2136, AID2284, AID2285, AID2359]. Format: functional.
Assay [21] deals with T4, Mu-type opioid receptor. Briefly: SAR Analysis of Agonists of the MOR Receptor using an Image-Based Assay - Set 2. [Related pubchem assays (depositor defined):AID1777, AID1785, AID1786, AID1966, AID2133, AID2136, AID2284, AID2285, AID2352]. It counts as functional.
The next assay deals with Exodeoxyribonuclease V (Escherichia coli (strain K12), UniProt P04993+P07648+P08394). The assay can be described thus: E. coli RecBCD inhibitors, dose response, counter-screen for AddAB inhibitor project, absorbance, V66 E. coli, mutant T4 phage (AID 492957). It counts as functional, cell-based, Escherichia coli str. K-12 substr. MG1655.
Sequence of Exodeoxyribonuclease V (P04993 whole entry): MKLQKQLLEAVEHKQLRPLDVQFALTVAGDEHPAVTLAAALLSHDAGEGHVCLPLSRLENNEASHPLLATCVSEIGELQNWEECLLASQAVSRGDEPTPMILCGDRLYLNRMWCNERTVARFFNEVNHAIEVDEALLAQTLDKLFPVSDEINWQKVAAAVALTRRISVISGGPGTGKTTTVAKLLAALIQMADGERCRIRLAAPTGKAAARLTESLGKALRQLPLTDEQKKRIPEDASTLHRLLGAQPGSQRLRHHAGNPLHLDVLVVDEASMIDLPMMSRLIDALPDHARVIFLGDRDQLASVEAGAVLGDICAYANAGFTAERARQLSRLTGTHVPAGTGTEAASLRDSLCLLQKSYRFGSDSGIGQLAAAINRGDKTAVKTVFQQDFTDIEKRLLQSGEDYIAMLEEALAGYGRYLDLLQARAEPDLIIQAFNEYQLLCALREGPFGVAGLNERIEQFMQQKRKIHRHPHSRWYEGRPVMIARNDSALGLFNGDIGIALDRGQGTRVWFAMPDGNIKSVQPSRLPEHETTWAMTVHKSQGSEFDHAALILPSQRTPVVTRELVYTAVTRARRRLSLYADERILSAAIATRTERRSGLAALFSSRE
Sequence of Exodeoxyribonuclease V (P07648 whole entry): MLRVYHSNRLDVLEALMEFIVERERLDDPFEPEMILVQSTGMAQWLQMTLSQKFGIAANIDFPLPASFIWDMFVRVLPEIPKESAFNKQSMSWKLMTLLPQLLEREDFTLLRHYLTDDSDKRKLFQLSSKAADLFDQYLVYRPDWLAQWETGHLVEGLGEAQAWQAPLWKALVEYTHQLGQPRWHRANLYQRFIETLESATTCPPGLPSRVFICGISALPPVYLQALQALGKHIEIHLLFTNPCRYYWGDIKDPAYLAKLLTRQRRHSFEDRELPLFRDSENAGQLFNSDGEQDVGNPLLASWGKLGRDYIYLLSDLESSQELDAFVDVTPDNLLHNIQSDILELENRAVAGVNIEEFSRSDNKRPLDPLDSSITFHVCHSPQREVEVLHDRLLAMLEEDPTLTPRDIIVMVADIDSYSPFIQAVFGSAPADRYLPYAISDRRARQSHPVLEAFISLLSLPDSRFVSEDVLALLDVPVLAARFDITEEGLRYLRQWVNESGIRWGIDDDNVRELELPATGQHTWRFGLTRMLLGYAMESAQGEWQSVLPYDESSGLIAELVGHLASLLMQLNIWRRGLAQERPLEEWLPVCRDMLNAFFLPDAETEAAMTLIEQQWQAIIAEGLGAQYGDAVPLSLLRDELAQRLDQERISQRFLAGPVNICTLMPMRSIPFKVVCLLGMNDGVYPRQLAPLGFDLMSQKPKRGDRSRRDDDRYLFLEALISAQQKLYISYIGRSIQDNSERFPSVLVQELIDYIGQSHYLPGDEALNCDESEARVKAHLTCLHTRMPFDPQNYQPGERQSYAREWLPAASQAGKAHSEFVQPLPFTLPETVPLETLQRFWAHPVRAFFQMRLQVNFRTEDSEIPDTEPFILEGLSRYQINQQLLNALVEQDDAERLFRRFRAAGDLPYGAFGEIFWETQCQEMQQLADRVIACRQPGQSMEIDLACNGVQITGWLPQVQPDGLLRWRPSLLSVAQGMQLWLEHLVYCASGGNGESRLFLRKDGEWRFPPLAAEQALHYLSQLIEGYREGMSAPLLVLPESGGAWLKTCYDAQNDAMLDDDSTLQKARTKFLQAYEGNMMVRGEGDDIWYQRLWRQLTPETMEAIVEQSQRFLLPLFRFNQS
Sequence of Exodeoxyribonuclease V (P08394 whole entry): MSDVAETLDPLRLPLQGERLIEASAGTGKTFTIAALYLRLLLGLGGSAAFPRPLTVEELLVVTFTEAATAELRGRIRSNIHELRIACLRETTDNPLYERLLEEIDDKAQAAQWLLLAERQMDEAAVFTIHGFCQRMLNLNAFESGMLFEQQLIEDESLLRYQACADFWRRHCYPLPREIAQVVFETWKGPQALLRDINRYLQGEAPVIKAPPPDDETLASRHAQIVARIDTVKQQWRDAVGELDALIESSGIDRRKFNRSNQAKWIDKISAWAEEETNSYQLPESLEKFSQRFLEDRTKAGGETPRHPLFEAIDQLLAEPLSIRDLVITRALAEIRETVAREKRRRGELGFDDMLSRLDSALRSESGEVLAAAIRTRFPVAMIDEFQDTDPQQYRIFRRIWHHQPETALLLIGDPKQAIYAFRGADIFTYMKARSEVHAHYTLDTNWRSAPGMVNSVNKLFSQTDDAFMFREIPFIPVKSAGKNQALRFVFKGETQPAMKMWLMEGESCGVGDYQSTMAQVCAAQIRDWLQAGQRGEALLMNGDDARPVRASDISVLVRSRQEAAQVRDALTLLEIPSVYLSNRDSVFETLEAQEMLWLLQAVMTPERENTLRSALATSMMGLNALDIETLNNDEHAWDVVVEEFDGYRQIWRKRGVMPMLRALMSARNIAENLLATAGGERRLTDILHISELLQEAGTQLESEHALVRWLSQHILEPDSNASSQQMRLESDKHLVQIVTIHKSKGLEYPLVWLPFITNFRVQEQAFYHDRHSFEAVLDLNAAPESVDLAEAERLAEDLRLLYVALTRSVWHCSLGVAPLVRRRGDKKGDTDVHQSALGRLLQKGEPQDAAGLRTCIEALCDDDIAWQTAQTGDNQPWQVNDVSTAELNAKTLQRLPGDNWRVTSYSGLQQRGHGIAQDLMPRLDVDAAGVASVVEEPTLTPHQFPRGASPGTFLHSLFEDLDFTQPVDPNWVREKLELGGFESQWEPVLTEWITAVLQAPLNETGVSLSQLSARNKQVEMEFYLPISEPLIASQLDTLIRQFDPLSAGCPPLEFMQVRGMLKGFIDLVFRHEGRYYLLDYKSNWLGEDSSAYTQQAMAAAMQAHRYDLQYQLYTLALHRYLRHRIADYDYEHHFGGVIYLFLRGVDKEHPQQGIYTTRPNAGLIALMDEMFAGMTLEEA
A short description of assay [22]: Counterscreen for AddAB inhibitors: absorbance-based bacterial cell-based high throughput dose response assay for inhibitors of bacterial viability. [Related pubchem assays (depositor defined):AID435030, AID449728, AID449731, AID488942, AID488955, AID488956]. It counts as functional.

Calls of active or inactive are those of the source.

T3 sequence (P41145 whole entry): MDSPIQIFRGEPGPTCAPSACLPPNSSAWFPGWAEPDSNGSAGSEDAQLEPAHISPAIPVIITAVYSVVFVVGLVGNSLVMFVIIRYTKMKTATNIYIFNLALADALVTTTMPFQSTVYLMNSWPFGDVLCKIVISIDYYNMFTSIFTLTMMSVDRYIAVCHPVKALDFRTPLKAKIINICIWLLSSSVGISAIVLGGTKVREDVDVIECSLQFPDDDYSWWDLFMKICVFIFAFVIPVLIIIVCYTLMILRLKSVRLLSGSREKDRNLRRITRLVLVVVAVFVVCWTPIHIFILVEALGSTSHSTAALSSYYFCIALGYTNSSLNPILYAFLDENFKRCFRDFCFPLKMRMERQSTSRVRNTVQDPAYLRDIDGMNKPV
Sequence of Dual specificity protein phosphatase 3 (P51452 whole entry): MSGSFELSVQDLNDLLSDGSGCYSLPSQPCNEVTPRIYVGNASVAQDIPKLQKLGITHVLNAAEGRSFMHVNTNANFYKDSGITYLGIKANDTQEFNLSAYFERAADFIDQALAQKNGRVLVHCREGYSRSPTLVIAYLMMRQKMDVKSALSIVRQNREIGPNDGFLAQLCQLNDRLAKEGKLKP

As for `O=C(NC1CCCCC1)c1cc2nc3c(c(C(F)(F)F)n2n1)CCCC3`, the EC50 at Troponin, cardiac muscle was > 71.5 µM (inactive).
For the molecule `CCOc1ccc(NC(=O)Nc2ccc3nc(-c4ccco4)c(-c4ccco4)nc3c2)cc1`, the half-inhibitory concentration (IC50) in assay [1] was 10.4 µM (active).
In the case of `O=C(NC(NC(=S)Nc1ccc(Cl)cc1Cl)C(Cl)(Cl)Cl)OCc1ccccc1` (centres undefined), the IC50 in assay [2] is > 32 µM (inactive); in assay [3], 2.09 µM (active); in [4], > 100 µM (inactive); on Mu-type opioid receptor [6], > 32 µM (inactive); in assay [9] it was > 100 µM (inactive); in assay [10] it was 0.879 µM (active). Also, the EC50 (in assay [5]; at Mu-type opioid receptor [7]; in [8]) was > 32 µM (inactive) in each case.
On to `Clc1ccc(CSc2nnc(-c3ccccn3)n2Cc2cccs2)c(Cl)c1`, for which the EC50 in assay [11] is 2.27 µM (active); in [12], 1.38 µM (active); in assay [14] it was 0.694 µM (active); on Mu-type opioid receptor [16], > 32 µM (inactive); in assay [17] it was > 32 µM (inactive); in [19], > 64 µM (inactive). The concentration for a half-maximal effect (EC50) in assay [20] is 8.11 µM (active); at Mu-type opioid receptor [21] it was > 32 µM (inactive). In addition, the IC50 (in [13]; in [15]; on Mu-type opioid receptor [18]) was > 32 µM (inactive) throughout.
Take `O=C(N/N=C\c1cccc(Cl)c1)c1ccc(Cn2cc(Br)c([N+](=O)[O-])n2)o1`: the IC50 (at Exodeoxyribonuclease V; in assay [22]) was > 119 µM (inactive) each time.
